Test results: paper PMC9036655 (RSC Advances, 2021)

Legend:
M. tuberculosis H37Rv = test: Antimycobacterial activity against M. tuberculosis H37Rv; type: cell-based, Mycobacterium tuberculosis; conditions: for inhibition at 50 µg/mL / inhibition at 20 µg/mL: Mycobacterium tuberculosis, H37RV; for inhibition at 50 µg/mL: read-out: % inhibition 50 μg mL^−1, M. tuberculosis H37Rv, 50 μg mL^−1; for inhibition at 20 µg/mL: read-out: % inhibition 20 μg mL^−1, M. tuberculosis H37Rv; for inhibition at 20 µg/mL / % inhibition 20 μg mL^−1: 20 μg mL^−1
A549 cells = test: Cytotoxicity, MTT assay, A549 cells; type: cell-based, Human; conditions: for IC50: Homo sapiens, A549, 72 h, read-out: IC50 A549; for Selectivity index A549: IC50(A549)/MIC M. tb.
Vero cells = test: Cytotoxicity, MTT assay, Vero cells; type: cell-based, African green monkey; conditions: IC50(Vero)/MIC M. tb.

Compound	inhibition at 50 µg/mL (M. tuberculosis H37Rv)	inhibition at 20 µg/mL (M. tuberculosis H37Rv)	other results
4-Methyl-3-(((1-(4-(trifluoromethoxy)benzoyl)piperidin-4-yl)amino)methyl)-5,6,7,8-tetrahydroquinolin-2(1H)-one [6d10]			MIC (M. tuberculosis H37Rv; M. tuberculosis H37Rv, MIC90, average of three measurements): >50 µg/mL
Cc1[nH]c(=O)c(CNC(=O)c2ccc([N+](=O)[O-])s2)c2c1CCC2 [6a1, N-((1-Methyl-3-oxo-3,5,6,7-tetrahydro-2H-cyclopenta[c]pyridin-4-yl)methyl)-5-nitrothiophene-2-carboxamide]	53%		
Cc1[nH]c(=O)c(CNC(=O)c2ccc(F)nc2)c2c1CCC2 [6a2, 6-Fluoro-N-((1-methyl-3-oxo-3,5,6,7-tetrahydro-2H-cyclopenta[c]pyridin-4-yl)methyl)nicotinamide]	14%		
COc1cc(OC)cc(-c2ccc(C(=O)NCc3c4c(c(C)[nH]c3=O)CCCC4)cc2)c1 [6b6, 3′,5′-Dimethoxy-N-((1-methyl-3-oxo-2,3,5,6,7,8-hexahydroisoquinolin-4-yl)methyl)-[1,1′-biphenyl]-4-carboxamide]			IC50 (A549 cells): > 100 µg/mL; Selectivity index A549 (A549 cells): >33; Selectivity index Vero (Vero cells): >16
Cc1[nH]c(=O)c(CNC(=O)c2ccc(Cl)nc2)c2c1CCCC2 [6b24, 6-Chloro-N-((1-methyl-3-oxo-2,3,5,6,7,8-hexahydroisoquinolin-4-yl)methyl)nicotinamide]		98.3%	
Cc1[nH]c(=O)c(CNC(=O)c2ccc(Br)nc2)c2c1CCCC2 [6b25, 6-Bromo-N-((1-methyl-3-oxo-2,3,5,6,7,8-hexahydroisoquinolin-4-yl)methyl)nicotinamide]		98.9%	
Cc1[nH]c(=O)c(CNC(=O)c2ccc(F)nc2)c2c1CCCC2 [6b26, 6-Fluoro-N-((1-methyl-3-oxo-2,3,5,6,7,8-hexahydroisoquinolin-4-yl)methyl)nicotinamide]		94.1%	IC50 (A549 cells): > 100 µg/mL; Selectivity index A549 (A549 cells): >63; Selectivity index Vero (Vero cells): >31
Cc1ccc(C(=O)NCc2c3c(c(C)[nH]c2=O)CCCC3)cn1 [6b27, 6-Methyl-N-((1-methyl-3-oxo-2,3,5,6,7,8-hexahydroisoquinolin-4-yl)methyl)nicotinamide]		98.6%	
Cc1[nH]c(=O)c(CNC(=O)c2ccc([N+](=O)[O-])nc2)c2c1CCCC2 [6b28, N-((1-Methyl-3-oxo-2,3,5,6,7,8-hexahydroisoquinolin-4-yl)methyl)-6-nitronicotinamide]		98.9%	
Cc1[nH]c(=O)c(CNC(=O)c2ccc([N+](=O)[O-])o2)c2c1CCCC2 [6b29, N-((1-Methyl-3-oxo-2,3,5,6,7,8-hexahydroisoquinolin-4-yl)methyl)-5-nitrofuran-2-carboxamide]		100%	IC50 (A549 cells): > 100 µg/mL; Selectivity index A549 (A549 cells): >35; Selectivity index Vero (Vero cells): >17
Cc1[nH]c(=O)c(CNC(=O)c2cc([N+](=O)[O-])co2)c2c1CCCC2 [6b30, N-((1-Methyl-3-oxo-2,3,5,6,7,8-hexahydroisoquinolin-4-yl)methyl)-4-nitrofuran-2-carboxamide]		78.2%	
Cc1[nH]c(=O)c(CNC(=O)c2ccc(Br)o2)c2c1CCCC2 [6b31, 5-Bromo-N-((1-methyl-3-oxo-2,3,5,6,7,8-hexahydroisoquinolin-4-yl)methyl)furan-2-carboxamide]		97.7%	
Cc1[nH]c(=O)c(CNC(=O)c2ccc([N+](=O)[O-])s2)c2c1CCCC2 [6b32, N-((1-Methyl-3-oxo-2,3,5,6,7,8-hexahydroisoquinolin-4-yl)methyl)-5-nitrothiophene-2-carboxamide]		96.4%	
Cc1[nH]c(=O)c(CNC(=O)c2ccc(C(F)(F)F)o2)c2c1CCCC2 [6b33, N-((1-Methyl-3-oxo-2,3,5,6,7,8-hexahydroisoquinolin-4-yl)methyl)-5-(trifluoromethyl)furan-2-carboxamide]		98.3%	IC50 (A549 cells): > 100 µg/mL; Selectivity index A549 (A549 cells): >50; Selectivity index Vero (Vero cells): >25
Cc1[nH]c(=O)c(CNC(=O)c2cn[nH]c2)c2c1CCCC2 [6b35, N-((1-Methyl-3-oxo-2,3,5,6,7,8-hexahydroisoquinolin-4-yl)methyl)-1H-pyrazole-4-carboxamide]		94.6%	
Cc1[nH]c(=O)c(CNC(=O)c2ccno2)c2c1CCCC2 [6b36, N-((1-Methyl-3-oxo-2,3,5,6,7,8-hexahydroisoquinolin-4-yl)methyl)isoxazole-5-carboxamide]		25.1%	
Cc1[nH]c(=O)c(CNC(=O)c2ccc(Br)nc2)c2c1CCCCC2 [6c1, 6-Bromo-N-((1-methyl-3-oxo-3,5,6,7,8,9-hexahydro-2H-cyclohepta[c]pyridin-4-yl)methyl)nicotinamide]	33%		
Cc1c2c([nH]c(=O)c1CNC(=O)c1ccc([N+](=O)[O-])s1)CCCC2 [6d5, N-((4-Methyl-2-oxo-1,2,5,6,7,8-hexahydroquinolin-3-yl)methyl)-5-nitrothiophene-2-carboxamide]	100%		
COc1cc(OC)cc(C(=O)NCc2c(C)c3c([nH]c2=O)CCCC3)c1 [6d6, 3,5-Dimethoxy-N-((4-methyl-2-oxo-1,2,5,6,7,8-hexahydroquinolin-3-yl)methyl)benzamide]	100%		

Compound	inhibition at 50 µg/mL (M. tuberculosis H37Rv)	inhibition at 20 µg/mL (M. tuberculosis H37Rv)	other results
Cc1c2c([nH]c(=O)c1CNC(=O)c1ccc(C(F)(F)F)nc1Cl)CCCC2 [6d7, 2-Chloro-N-((4-methyl-2-oxo-1,2,5,6,7,8-hexahydroquinolin-3-yl)methyl)-6-(trifluoromethyl)nicotinamide]	99%		
Cc1c2c([nH]c(=O)c1CNC(=O)c1ccc(-c3ccc(C(F)(F)F)nc3)cc1)CCCC2 [6d9, N-((4-Methyl-2-oxo-1,2,5,6,7,8-hexahydroquinolin-3-yl)methyl)-4-(6-(trifluoromethyl)pyridin-3-yl)benzamide]	18%		
COc1cc(OC)cc(-c2ccc(C(=O)NCc3c(C)cc(C4CC4)[nH]c3=O)cc2)c1 [7a2, N-((6-Cyclopropyl-4-methyl-2-oxo-1,2-dihydropyridin-3-yl)methyl)-3′,5′-dimethoxy-[1,1′-biphenyl]-4-carboxamide]		21%	
COc1cc(OC)cc(-c2ccc(C(=O)NCc3c(C)cc(-c4ccccc4)[nH]c3=O)cc2)c1 [7b2, 3′,5′-Dimethoxy-N-((4-methyl-2-oxo-6-phenyl-1,2-dihydropyridin-3-yl)methyl)-[1,1′-biphenyl]-4-carboxamide]		33%	
Cc1cc(C)c(CNC(=O)c2ccc([N+](=O)[O-])o2)c(=O)[nH]1 [8a1, N-((4,6-Dimethyl-2-oxo-1,2-dihydropyridin-3-yl)methyl)-5-nitrofuran-2-carboxamide]		75.3%	
CCc1cc(CC)c(CNC(=O)c2ccc([N+](=O)[O-])o2)c(=O)[nH]1 [8a3, N-((4,6-Diethyl-2-oxo-1,2-dihydropyridin-3-yl)methyl)-5-nitrofuran-2-carboxamide]		98.1%	
Cc1cc(C)c(CNC(=O)c2ccc(C(F)(F)F)cc2)c(=O)[nH]1 [8a4, N-((4,6-Dimethyl-2-oxo-1,2-dihydropyridin-3-yl)methyl)-4-(trifluoromethyl)benzamide]		87.6%	
CCc1cc(CC)c(CNC(=O)c2ccc(C(F)(F)F)nc2)c(=O)[nH]1 [8a5, N-((4,6-Diethyl-2-oxo-1,2-dihydropyridin-3-yl)methyl)-6-(trifluoromethyl)nicotinamide]		94.4%	
Cc1c(CNC(=O)c2ccc(C(F)(F)F)nc2)c(=O)[nH]c2ccccc12 [9a1, N-((4-Methyl-2-oxo-1,2-dihydroquinolin-3-yl)methyl)-6-(trifluoromethyl)nicotinamide]	2%		
COc1cc(OC)cc(-c2ccc(C(=O)NCc3c(C)c4ccccc4[nH]c3=O)cc2)c1 [9a2, 3′,5′-Dimethoxy-N-((4-methyl-2-oxo-1,2-dihydroquinolin-3-yl)methyl)-[1,1′-biphenyl]-4-carboxamide]	15%		
Cc1c(CNC(=O)c2ccc(-c3ccc(C(F)(F)F)nc3)cc2)c(=O)[nH]c2ccccc12 [9a3, N-((4-Methyl-2-oxo-1,2-dihydroquinolin-3-yl)methyl)-4-(6-(trifluoromethyl)pyridin-3-yl)benzamide]	13%		
Cc1c(CNC(=O)c2cnc(C(F)(F)F)nc2)c(=O)[nH]c2ccccc12 [9a4, N-((4-Methyl-2-oxo-1,2-dihydroquinolin-3-yl)methyl)-2-(trifluoromethyl)pyrimidine-5-carboxamide]	3%		
Cc1[nH]c(=O)c(CNCc2ccc(C(F)(F)F)cc2)c2c1CCCC2 [10a1, 1-Methyl-4-(((4-(trifluoromethyl)benzyl)amino)methyl)-5,6,7,8-tetrahydroisoquinolin-3(2H)-one]		65.7%	
Cc1[nH]c(=O)c(CNS(=O)(=O)c2ccc(C(F)(F)F)nc2)c2c1CCCC2 [10a2, N-((1-Methyl-3-oxo-2,3,5,6,7,8-hexahydroisoquinolin-4-yl)methyl)-6-(trifluoromethyl)pyridine-3-sulfonamide]		92.7%	
Cc1[nH]c(=O)c(C(=O)Nc2ccc(C(F)(F)F)cc2)c2c1CCCC2 [10a4, 1-Methyl-3-oxo-N-(4-(trifluoromethyl)phenyl)-2,3,5,6,7,8-hexahydroisoquinoline-4-carboxamide]		36.8%	
Cc1[nH]c(=O)c(CNC(=O)Cc2ccc(C(F)(F)F)cc2)c2c1CCCC2 [10a5, N-((1-Methyl-3-oxo-2,3,5,6,7,8-hexahydroisoquinolin-4-yl)methyl)-2-(4-(trifluoromethyl)phenyl)acetamide]		99.3%	
NNC(=O)c1ccncc1 [Isoniazid, reference compound]	98.9%	98.9%	% inhibition 20 μg mL^−1 (M. tuberculosis H37Rv; M. tuberculosis H37Rv): 99.4%
N-((6-Ethyl-4-methyl-2-oxo-1,2-dihydropyridin-3-yl)methyl)-5-nitrofuran-2-carboxamide [8a2]			% inhibition 20 μg mL^−1 (M. tuberculosis H37Rv; M. tuberculosis H37Rv): 98.2%
